Laboratory results reported in patent publication US20230023559A1, “ARYLMETHYLENE HETEROCYCLIC COMPOUNDS AS KV1.3 POTASSIUM SHAKER CHANNEL BLOCKERS” (D. E. Shaw Research, LLC, priority 2019, published 2023).

Key:
[1] = molecular target: hERG channel (Homo sapiens, UniProt Q12809); experiment: hERG electrophysiology, automated whole-cell patch clamp (Patchliner)
[2] = molecular target: T1, Kv1.3 potassium channel (Homo sapiens, UniProt P22001); experiment: Kv1.3 potassium channel blocker activity, automated whole-cell patch clamp (Patchliner); format: cell-based; conditions: CHO-K1 cells stably expressing Kv1.3; whole cell current inhibition; read-out: Kv1.3_IC50
T1 construct: expressed in transfected cells
T1 sequence (P22001 whole entry): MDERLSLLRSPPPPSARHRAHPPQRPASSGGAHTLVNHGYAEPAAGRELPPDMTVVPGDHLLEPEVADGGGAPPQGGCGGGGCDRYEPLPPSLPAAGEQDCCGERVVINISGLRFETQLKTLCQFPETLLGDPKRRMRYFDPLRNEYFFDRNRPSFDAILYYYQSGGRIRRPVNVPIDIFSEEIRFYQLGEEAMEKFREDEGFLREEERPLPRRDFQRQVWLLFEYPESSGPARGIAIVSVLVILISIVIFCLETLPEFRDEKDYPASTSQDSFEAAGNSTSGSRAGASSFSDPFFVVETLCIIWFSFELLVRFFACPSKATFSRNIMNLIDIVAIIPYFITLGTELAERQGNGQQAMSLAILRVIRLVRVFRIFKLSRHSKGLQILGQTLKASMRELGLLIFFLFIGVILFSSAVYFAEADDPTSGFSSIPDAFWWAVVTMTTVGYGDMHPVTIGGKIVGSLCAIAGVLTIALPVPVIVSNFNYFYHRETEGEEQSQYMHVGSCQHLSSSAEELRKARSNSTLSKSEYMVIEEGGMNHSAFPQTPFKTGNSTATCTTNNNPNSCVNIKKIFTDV
Outline: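 CHO-K1 cells stably expressing Kv1.3, automated whole-cell patch clamp. Currents evoked by 100 ms steps from −90 mV holding to +40 mV at 0.1 Hz, sampled at 10 kHz unfiltered, P/4 leak subtraction; peak current inhibition measured, compound incubation ≤10 s between pulse trains.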

hERG channel, sequence (Q12809 whole entry): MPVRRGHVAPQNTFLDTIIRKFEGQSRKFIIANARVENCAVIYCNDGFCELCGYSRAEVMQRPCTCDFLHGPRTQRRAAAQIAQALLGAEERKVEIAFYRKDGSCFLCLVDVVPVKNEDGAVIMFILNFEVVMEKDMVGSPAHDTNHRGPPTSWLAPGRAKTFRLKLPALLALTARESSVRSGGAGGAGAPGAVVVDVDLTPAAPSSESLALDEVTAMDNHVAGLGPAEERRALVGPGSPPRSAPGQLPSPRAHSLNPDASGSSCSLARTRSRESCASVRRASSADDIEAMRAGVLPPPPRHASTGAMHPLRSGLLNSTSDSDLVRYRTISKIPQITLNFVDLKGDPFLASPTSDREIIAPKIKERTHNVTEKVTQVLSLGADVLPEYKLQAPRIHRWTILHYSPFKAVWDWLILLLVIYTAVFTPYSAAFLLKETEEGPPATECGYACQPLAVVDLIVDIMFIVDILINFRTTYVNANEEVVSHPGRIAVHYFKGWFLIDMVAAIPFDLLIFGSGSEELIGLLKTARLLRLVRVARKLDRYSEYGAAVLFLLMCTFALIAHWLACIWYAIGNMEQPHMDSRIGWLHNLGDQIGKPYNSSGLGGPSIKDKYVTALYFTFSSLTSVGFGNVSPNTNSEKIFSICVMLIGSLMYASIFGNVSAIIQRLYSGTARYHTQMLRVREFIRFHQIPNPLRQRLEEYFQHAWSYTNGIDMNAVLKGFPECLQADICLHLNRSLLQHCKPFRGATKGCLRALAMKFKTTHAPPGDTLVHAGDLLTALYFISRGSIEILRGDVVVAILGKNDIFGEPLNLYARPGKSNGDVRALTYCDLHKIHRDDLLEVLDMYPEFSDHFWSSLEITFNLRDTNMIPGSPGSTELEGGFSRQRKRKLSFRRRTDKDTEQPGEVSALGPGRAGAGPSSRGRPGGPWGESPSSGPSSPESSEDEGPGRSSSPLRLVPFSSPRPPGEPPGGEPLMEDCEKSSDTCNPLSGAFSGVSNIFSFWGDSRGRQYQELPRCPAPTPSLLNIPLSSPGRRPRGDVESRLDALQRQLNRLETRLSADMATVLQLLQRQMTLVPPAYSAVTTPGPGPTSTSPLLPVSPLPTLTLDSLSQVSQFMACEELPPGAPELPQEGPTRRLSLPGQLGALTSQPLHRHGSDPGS

Row | SMILES | IC50 [1] [µM] | IC50 [2] [µM]
1 | Cc1cc(O)c([C@H](N)C2CCN(C(=O)c3ccc(=O)n(C)c3)CC2)cc1Cl [Compound 239, 5-[4-[(R)-amino (5-chloro-2-hydroxy-4-methylphenyl)methyl]piperidine-1-carbonyl]-1-methylpyridin-2(1H)-one trifluoroacetic acid] | > 30 | < 0.5
2 | Cc1cc(O)c([C@H](N)C2CCN(C(=O)c3cnc4nccn4c3)CC2)cc1Cl [Compound 240, 2-[(R)-amino(1-[imidazo[1,2-a]pyrimidine-6-carbonyl]piperidin-4-yl)methyl]-4-chloro-5-methylphenol Trifluoroacetic Acid] | > 30 | < 0.5
3 | Cc1cc(O)c([C@H](N)C2CCN(C(=O)c3c[nH]c(=O)c(Cl)c3)CC2)cc1Cl [Compound 241, 5-[4-[(R)-amino (5-chloro-2-hydroxy-4-methylphenyl)methyl]piperidine-1-carbonyl]-3-chloro-1H-pyridin-2-one trifluoro-acetic acid] | > 30 | < 0.5
4 | Cc1cc(O)c([C@H](N)C2CCN(C(=O)c3ccc4nncn4c3)CC2)cc1Cl [Compound 242, (R)-[1,2,4]triazolo[4,3-a]pyridin-6-yl(4-(amino(5-chloro-2-hydroxy-4-methylphenyl)methyl)piperidin-1-yl)methanone trifluoroacetic acid] | > 30 | < 0.5
5 | COc1ccc(C(=O)N2CCC([C@@H](N)c3cc(Cl)c(C)cc3O)CC2)cn1 [Compound 243, 2-[(R)-amino[1-(6-methoxypyridine-3-carbonyl)piperidin-4-yl]methyl]-4-chloro-5-methylphenol trifluoroacetic acid] | < 30 | < 0.5
6 | Cc1cc(O)c([C@H](N)C2CCN(C(=O)[C@H](O)CO)CC2)c(F)c1Cl [Compound 244, (2R)-1-[4-[(R)-amino(3-chloro-2-fluoro-6-hydroxy-4-methylphenyl)methyl]piperidin-1-yl]-2,3-dihydroxypropan-1-one] | > 30 | < 0.5
7 | Cc1cc(O)c([C@H](N)C2CCN(C(=O)c3c[nH]c(=O)cc3Cl)CC2)cc1Cl [Compound 245, 5-[4-[(R)-amino (5-chloro-2-hydroxy-4-methylphenyl)methyl]piperidine-1-carbonyl]-4-chloro-1H-pyridin-2-one trifluoroacetic acid] | > 30 | < 0.5
8 | Cc1cc(O)c([C@H](N)C2CCN(C(=O)C3CCS(=O)(=O)CC3)CC2)cc1Cl [Compound 247, (R)-(4-(amino(5-chloro-2-hydroxy-4-methylphenyl)methyl)piperidin-1-yl)(1,1-dioxidotetrahydro-2H-thiopyran-4-yl)methanone trifluoroacetic acid] | > 30 | < 0.5
9 | Cc1cc(O)c([C@H](N)C2CCN(C(=O)c3ccc(CO)nc3)CC2)cc1Cl [Compound 248, 2-[(R)-amino([1-[6-(hydroxymethyl)pyridine-3-carbonyl]piperidin-4-yl])methyl]-4-chloro-5-methylphenol] | > 30 | < 0.5
10 | Cc1cc(O)c([C@H](N)C2CCN(C(=O)c3ccc(=O)n(CCO)c3)CC2)cc1Cl [Compound 249, 5-[4-[(R)-amino (5-chloro-2-hydroxy-4-methylphenyl)methyl]piperidine-1-carbonyl]-1-(2-hydroxyethyl) pyridin-2-one trifluoroacetic acid] | > 30 | < 0.5
11 | N[C@@H](c1c(O)cc(Cl)c(Cl)c1F)C1CCN(C(=O)c2ccc(=O)[nH]c2)CC1 [Compound 257, 5-[4-[(R)-amino(3,4-dichloro-2-fluoro-6-hydroxyphenyl)methyl]piperidine-1-carbonyl]-1H-pyridin-2-one Trifluoroacetic Acid] | > 30 | < 0.5
12 | N[C@@H](c1cc(Cl)c(Cl)cc1O)C1CCN(C(=O)[C@@H]2OCC[C@@H]2O)CC1 [Compound 260, (2R,3S)-2-[4-[(R)-amino(4,5-dichloro-2-hydroxyphenyl)methyl]piperidine-1-carbonyl]oxolan-3-ol Trifluoroacetic Acid] | > 30 | < 0.5
13 | Cc1cc(O)c([C@H](N)C2CCN(C(=O)c3c[nH]c(=O)c(C)c3)CC2)cc1Cl [Compound 262, 5-[4-[(R)-amino (5-chloro-2-hydroxy-4-methylphenyl)methyl]piperidine-1-carbonyl]-3-methyl-1H-pyridin-2-one trifluoroacetic acid] | > 30 | < 0.5
14 | Cc1cc(O)c([C@H](N)C2CCN(C(=O)c3c[nH]c(=O)c(Cl)c3)CC2)c(F)c1Cl [Compound 264, 5-[4-[(R)-amino(3-chloro-2-fluoro-6-hydroxy-4-methylphenyl)methyl]piperidine-1-carbonyl]-3-chloro-1H-pyridin-2-one Trifluoroacetic Acid] | > 30 | < 10
15 | Cc1cc(O)c([C@H](N)C2CCN(C(=O)c3ccc(=O)[nH]c3)CC2)c(F)c1Cl [Compound 272, 5-[4-[(R)-amino(3-chloro-2-fluoro-6-hydroxy-4-methylphenyl)methyl]piperidine-1-carbonyl]-1H-pyridin-2-one Trifluoroacetic Acid] | > 30 | < 0.5
16 | N[C@@H](c1cc(Cl)c(Cl)cc1O)C1CCN(C(=O)C2CNC(=O)NC2)CC1 [Compound 275, 5-[4-[(R)-amino(4,5-dichloro-2-hydroxyphenyl)methyl]piperidine-1-carbonyl]-1,3-diazinan-2-one Trifluoroacetic Acid] | > 30 | < 0.5
17 | N[C@@H](c1cc(Cl)c(Cl)cc1O)C1CCN(C(=O)c2cnc(=O)[nH]c2)CC1 [Compound 277, 5-[4-[(R)-amino(4,5-dichloro-2-hydroxyphenyl)methyl]piperidine-1-carbonyl]-1H-pyrimidin-2-one trifluoroacetic acid] | > 30 | < 0.5
18 | N[C@@H](c1cc(Cl)c(Cl)cc1O)C1CCN(C(=O)C2CNC(=O)OC2)CC1 (stereo partly drawn) [Compound 279, 5-[4-[(R)-amino(4,5-dichloro-2-hydroxyphenyl)methyl]piperidine-1-carbonyl]-1,3-oxazinan-2-one trifluoroacetic acid] | > 30 | < 0.5
19 | Cc1cc(O)c([C@H](N)C2CCN(C(=O)c3c[nH]c(=O)c(C#N)c3)CC2)cc1Cl [Compound 280, (R)-5-(4-(amino (5-chloro-2-hydroxy-4-methylphenyl)methyl)piperidine-1-carbonyl)-2-oxo-1,2-dihydro-pyridine-3-carbonitrile] | > 30 | < 0.5
20 | Cc1cc(O)c([C@H](N)C2CCN(C(=O)[C@H](O)CO)CC2)cc1F [Compound 283, (2R)-1-[4-[(R)-amino(5-fluoro-2-hydroxy-4-methylphenyl)methyl]piperidin-1-yl]-2,3-dihydroxypropan-1-one] | > 30 | < 10
21 | N[C@@H](c1cc(Cl)c(C(F)(F)F)cc1O)C1CCN(C(=O)[C@H](O)CO)CC1 [Compound 284, (2R)-1-[4-[(R)-amino[5-chloro-2-hydroxy-4-(trifluoromethyl)phenyl]methyl]piperidin-1-yl]-2,3-dihydroxypropan-1-one] | > 30 | < 10
22 | N[C@@H](c1cc(Cl)c(C2CC2)cc1O)C1CCN(C(=O)[C@H](O)CO)CC1 [Compound 289, (2R)-1-[4-[(R)-amino(5-chloro-4-cyclopropyl-2-hydroxyphenyl)methyl]piperidin-1-yl]-2,3-dihydroxypropan-1-one] | > 30 | < 0.5
23 | N[C@@H](c1c(O)cc(Cl)c(Cl)c1F)C1CCN(C(=O)[C@H](O)CO)CC1 [Compound 291, (R)-1-(4-((R)-amino(3,4-dichloro-2-fluoro-6-hydroxyphenyl)methyl)piperidin-1-yl)-2,3-dihydroxypropan-1-one] | > 30 | < 0.5
24 | CCc1cc(O)c([C@H](N)C2CCN(C(=O)[C@H](O)CO)CC2)cc1Cl [Compound 292, (2R)-1-[4-[(R)-amino(5-chloro-4-ethyl-2-hydroxyphenyl)methyl]piperidin-1-yl]-2,3-dihydroxypropan-1-one Trifluoroacetic Acid] | > 30 | < 0.5
25 | Cc1cc(O)c([C@H](N)C2CCN(C(=O)[C@H](O)CO)CC2)cc1C [Compound 293, (2R)-1-[4-[(R)-amino(2-hydroxy-4,5-dimethylphenyl)methyl]piperidin-1-yl]-2,3-dihydroxypropan-1-one Trifluoroacetic Acid] | > 30 | < 0.5
26 | Cn1ccc(N2CCC([C@@H](N)c3cc(Cl)c(Cl)cc3O)CC2)cc1=O [Compound 297, 4-[4-[(R)-amino(4,5-dichloro-2-hydroxyphenyl)methyl]piperidin-1-yl]-1-methylpyridin-2-one] | < 30 | < 0.5
27 | Cn1cc(C(=O)N2CCC([C@@H](N)c3cc(Cl)c(Cl)cc3O)CC2)ncc1=O [Compound 298, 5-[4-[(R)-amino(4,5-dichloro-2-hydroxyphenyl)methyl]piperidine-1-carbonyl]-1-methylpyrazin-2-one Trifluoroacetic Acid] | < 30 | < 0.5
28 | N[C@@H](c1cc(Cl)c(Cl)cc1O)C1CCN(C(=O)C2CCC(=O)NC2)CC1 (stereo partly drawn) [Compound 299, 5-[4-[(R)-amino(4,5-dichloro-2-hydroxyphenyl)methyl]piperidine-1-carbonyl]piperidin-2-one Trifluoroacetic Acid] | > 30 | < 0.5
29 | CN1CC(C(=O)N2CCC([C@@H](N)c3cc(Cl)c(Cl)cc3O)CC2)NCC1=O (stereo partly drawn) [Compound 300, 5-[4-[(R)-amino(4,5-dichloro-2-hydroxyphenyl)methyl]piperidine-1-carbonyl]-1-methylpiperazin-2-one Trifluoroacetic Acid] | > 30 | < 0.5
